Results taken from US10918687B2, “Kava derived therapeutic compounds and methods of use thereof” (KUALITY HERBCEUTICS LLC, priority 2013, dated 2021).

Legend:
[1] = system: NNK-induced DNA adducts in lung tissues; assay: NNK-induced DNA adducts in A/J mouse lung tissues (LC-ESI-MS/MS); type: in vivo, A/J mice; conditions: 24 h after NNK; for minimum chemopreventive (effective) dose estimated from DNA adduct reduction: dose-response of O^6-mG reduction in lung
Source text: DNA was isolated from the whole lung tissue of each individual mouse following Puregene DNA isolation protocol (Qiagen Corp, Valencia, Calif.) (Urban et al., Chem Res Toxicol 2012; 25:2167-78). 7-pobG, O^2-pobdT, O^6-pobdG, and O^6-mG were quantified by LC-ESI-MS/MS, following established protocols (Urban et al., Chem Res Toxicol 2012; 25:2167-78; Peterson et al., Cancer Res 1991; 51:5557-64).
After one-week acclimation, A/J mice were weighed and randomized into seven groups (3 mice per group) and switched to the AIN-93 G diet on a date defined as Day 1. Mice in Groups 1 and 2 were given the AIN-93 G diet during Day 1-Day 7. Mice in Groups 3-7 were given the AIN-93 G diet supplemented with desmethoxyyangonin, (+)-DHK, (+)-kavain, (+)-DHM, or (+)-methysticin respectively, at a dose of 1 mg/g of diet during Day 1-Day 7. Mice in Groups 2-7 were given a single dose of NNK at 100 mg/kg bodyweight in saline (0.1 ml) via intraperitoneal (i.p.) injection at the beginning of Day 7 while mice in Group 1 were given saline (0.1 ml). Mice were euthanized by CO2 overdosing 24 h after NNK treatment, and lung tissues were collected and stored at −80° C. until DNA isolation. A number of NNK-induced DNA modifications (O^6-mG, 7-pobG, O^6-pobdG and O^2-pobdT) were quantified by following a reported procedure (Leitzman, P et al. (2014) Cancer. Prev. Res., 7: 86-96).
(§1) After one-week acclimation, A/J mice were weighed and randomized into ten groups (3 mice per group except for Group 1 that had one mouse as the negative control) and switched to the AIN-93 G diet on a date defined as Day 1. Mice in Groups 1 and 2 were given the AIN-93 G diet during Day 1-Day 7. Mice in Groups 3-10 were given the AIN-93 G diets supplemented with kava, (+)-DHK, (+)-DHM, and synthetic (±)-DHM respectively at the specified dose during Day 1-Day 7. Mice in Groups 2-10 were given a single dose of NNK at 100 mg/kg bodyweight in saline (0.1 ml) via i.p. injection at the beginning of Day 7 while the mouse in Group 1 was given saline (0.1 ml). Mice were euthanized by CO2 overdosing 24 h after NNK treatment, and lung and liver tissues were collected and stored at −80° C. until DNA isolation. A set of NNK-induced DNA adducts (O^6-mG, 7-mG, 7-pobG, O^6-pobdG, O^2-pobdT, 7-phbG, O^6-phbdG and O^2-phbdT) were quantified by following reported procedures (Leitzman, P et al. (2014) Cancer. Prev. Res., 7: 86-96; Peterson, L A et al. (2013) Chem. Res. Toxicol. 26: 1464-1473; Upadhyaya, P et al. (2008) Chem. Res. Toxicol. 21: 1468-1476). For 7-mG isolation, DNA (30 μg) was dissolved in 10 mM sodium phosphate buffer, pH 7 (500 μL) and spiked with [^13C1^2H3]7-mG (10 pmol). Samples were heated to 80° C. for 30 minutes. An aliquot (100 μL) was removed for 7-mG analysis.

[2] = system: NNK-induced DNA damage in liver tissues; assay: NNK-induced DNA damage in A/J mouse liver tissues; type: in vivo, A/J mice; conditions: diet Day 1-Day 7, 24 h after NNK; data not shown
Experimental: DNA was isolated and purified from ˜100 mg lung and liver tissues of each mouse, following Genomic-tip 100/G protocol from Qiagen Corp (Valencia, Calif.).
as §1

[3] = system: PhIP-induced DNA damage in hepe1c1c7 cells; assay: PhIP-induced DNA damage in hepe1c1c7 cells; type: cell-based, rodent; conditions: 1, 5 and 25 μM co-treated with PhIP (10 μM) for 24 hours
Source text: (§2) The goal of this study was to explore the potential scope of dihydromethysticin in blocking/reducing different carcinogen-induced DNA damage and detoxifying such carcinogens. […] Benzo(a)pyrene (BaP) is a representative polyaromatic hydrocarbon-based carcinogen in cigarette smoke and is present in various industrial/motor exhaust/waste. BaP is a human carcinogen to lung, stomach and other tissues. A rodent liver cancer cell line was used in these studies. Briefly, the hepe1c1c7 cells were co-treated with dihydromethysticin (1, 5, and 25 μM) and PhIP (10 μM) for 24 hours with DNA isolated and PhIP-based DNA damage quantified (FIG. 28A). […] Similarly the cells were co-treated with dihydromethysticin (1, 5, and 25 μM) and BaP (0.3 μM) for 3 hours with DNA isolated and BaP-based DNA damage quantified (FIG. 28B).

[4] = system: BaP-induced DNA damage in hepe1c1c7 cells; assay: BaP-induced DNA damage in hepe1c1c7 cells; type: cell-based, rodent; conditions: 1, 5 and 25 μM co-treated with BaP (0.3 μM) for 3 hours
Source text: as §2

[5] = system: human lung H2009 cancer cell line tumors; assay: H2009 human lung cancer xenograft in nude mice; type: in vivo; conditions: 40 mg/kg bodyweight via i.p. injection or oral gavage
Experimental: Typically human origin lung cancer cells were cultured and mixed with Metrigel. 2-5×10^6 cells were inoculated in the nude mice. Mice were randomized into different groups when the tumor size reached ˜50 mm^3. Treated mice received drug candidate at a dose of 40 mg/kg bodyweight via i.p. injection or oral gavage. The tumor size was monitored once or twice a week until 5 weeks since the treatment or when the size of the tumors >1000 mm^3. Mouse bodyweight was monitored once a week. Mice were CO^2 euthanized and the tumors were collected and weighed. Major organs were grossly examined and weighed as well.

[6] = system: APAP-induced hepatotoxicity; assay: Short-term combination study: potentiation of APAP-induced hepatotoxicity in C57BL/6 mice; conditions: 3-day daily gavage, DHM 37.5 mg/kg, FKB 11.5 mg/kg
Source text: Six week-old female C57BL/6J mice (Jackson Laboratories, ME) were housed at specific pathogen-free animal facilities of Research Animal Resources, University of Minnesota with free access to standard rodent food and water. All mice were acclimatized for one week before being used for experiments. Mice were gavaged with dose formulations at the indicated doses and times, euthanized by CO2 overdosing with necropsy performed by experienced researchers.
The short-term combination studies were designed to evaluate the potential synergism of kava and its chemicals to APAP induced hepatotoxicity. C57BL/6 mice were randomized (8-15 mice per group) and were administered with PEG-400 (200 μL), kava (500 mg/kg bodyweight), DHM or FKA and FKB in PEG-400 (200 μL) at the indicated doses daily via oral gavage for two days. On the third day, mice in the respective groups were co-administered with APAP (800 mg/kg bodyweight) in PEG-400 (200 μL). Bodyweight was recorded daily. Necropsies were performed 24 hours after the last gavage by experienced researchers. Serum from each mouse was analyzed for ALT and AST. Livers were collected and preserved in 10% neutral buffered formalin. Appropriately fixed tissues were processed into paraffin blocks using standard histological techniques, and 5 μm sections were cut and stained with hematoxylin and eosin (H&E).
The clinical chemistry data were reported as mean±SD (n=4-15). […] One-way analysis of variance (ANOVA) was used to compare the means among different groups in the short-term combination studies. Dunnett's test was used for comparisons of APAP and other treatment groups when the one-way ANOVA analysis was statistically significant. p-value≤0.05 was considered statistically significant. All analyses were conducted in GraphPad Prism 4 (GraphPad Software, Inc. La Jolla, Calif.).

[7] = 1, 0.25, 0.1 and 0.01 mg/g of diet
[8] = kava 5 and 1.25 mg/g, (+)-DHM 1, 0.25, 0.1 and 0.01 mg/g of diet

SMILES	effect on O^6-mG ([1]; 0.01 mg/g of diet)	extent of reduction in O^6-mG ([1]; 0.1 mg/g of diet)	effect on 7-mG [1, 7]	effect on PHB adducts (7-phbG, O^6-phbdG, O^2-phbdT) [1, 7]	minimum chemopreventive (effective) dose estimated from DNA adduct reduction [1]	effect on NNK-induced O^6-mG ([1]; isolated kavalactones 1 mg/g of diet Day 1-Day 7)	effect on O^6-mG, dose-response [1, 8]	effect on POB adducts, dose-response [1, 8]	effect on NNK-induced DNA damage in the liver tissues [2]	PhIP-induced DNA damage [3]	BaP-induced DNA damage [4]	tumor volume relative to control group [5]	serum ALT and AST when combined with APAP, vs APAP alone ([6]; APAP 800 mg/kg on third day, FKA and FKB 1, 2, 4 times abundance)	serum ALT and AST, treatment alone (without APAP) ([6]; kava 500 mg/kg, FKA and FKB at 1, 2 and 4 times their abundance in kava 500 mg/kg)
COC1=CC(=O)O[C@@H](CCc2ccc3c(c2)OCO3)C1 [(+)-DHM, (+)-dihydromethysticin]	no effect	comparable to that induced by kava at a dose of 1.25 mg/g of diet	dose-dependently reduced	dose-dependently reduced	0.01-0.1 mg/g of diet	significantly reduced	preferentially and dose-dependently reduced	weaker effects	none of the treatments had significant effects					
COC1=CC(=O)O[C@@H](CCc2ccc3c(c2)OCO3)C1 [DHM, dihydromethysticin]					0.01-0.1 mg/g of diet					effectively and dose-dependently reduced	effectively and dose-dependently reduced	significantly reduced	no effect	no effect
